Measurements as given in paper PMC4361473, “A New System for Profiling Drug-Induced Calcium Signal Perturbation in Human Embryonic Stem Cell–Derived Cardiomyocytes” (Journal of Biomolecular Screening, 2015).
Read-outs that look alike come from different tables or passages of the source.

What was measured:
Cytiva hSCCMs [1] = assay: SALVO profiling of drug-evoked Ca2+ signal perturbation (fluo-4 confocal imaging)
Text: Cytiva hSCCMs were derived from monolayer differentiation of an H7 hESC cell line that had been expanded under feeder-free conditions and then subjected to a proprietary differentiation protocol (GE Healthcare, Piscataway, NJ, USA).[13] […] Cells were thawed and seeded into 7-mm^2 chambers created by the adherence of silicon gaskets (CultureWell MultiWell 3 mm in diameter, 1-mm-depth inserts [Life Technologies]) on glass-bottomed culture chambers (In Vitro Scientific, Sunnyvale, CA, USA) that had been precoated with Matrigel (BD Biosciences, Franklin Lakes, NJ, USA), Franklin Lakes, NJ, USA diluted 1:30 (v/v) in Knockout DMEM (Life Technologies, Carlsbad, CA, USA). […] Cells were allowed to adhere to the coverslip for 2 h before the dish was filled with RPMI/B27 (2 mL). Medium was exchanged every 48 h.
Cells were incubated with fluo-4 AM (5 µM) (Life Technologies) for 1 h at 37°C before coverslips were flooded with RPMI/B27 (2 mL). […] Cells were maintained at 37 °C throughout experiments. […] The application of caffeine (5 mM final concentration) was used to trigger sarcoplasmic reticulum (SR) Ca^2+ release and thereby estimate the intra-SR Ca^2+ store load.
Taking our lead from Uhlen’s method of using spectral analysis to investigate the organization of Ca^2+ signals,[14] we developed SALVO to decode the spatiotemporal patterning of Ca^2+ oscillations within individual cells and across multicellular populations. SALVO outputs 30 parameters that describe Ca^2+ signal organization,[15] but for the purposes of this study, we focused on five parameters: oscillation rate (rate, Hz) and four other parameters that quantify the amplitude and temporal patterning of Ca^2+ oscillation: (1) amplitude heterogeneity index (AHI) and (2) temporal heterogeneity index (THI), statistical assessments of signal amplitude and temporal variability within single cells, respectively; (3) intertransient noise (ITN), defined as the Ca^2+ signal variability occurring between Ca^2+ oscillations and that extends the use of signal variability (SV) to measure point-by-point differences in very low-amplitude Ca^2+ signals[6],[10],[12]; and (4) synchronization, an index of the temporal coincidence of Ca^2+ oscillation maxima occurring across cells in the population. The calculation of these parameters is described in Supplementary Figure S1. SALVO is implemented using a Python-based computer program.[15] The detection of signal maxima and minima over a 30-s period in data obtained from 6 to 20 cells in each instance was performed using SALVO’s autodetection algorithms (based on spline detect or threshold detection methods) or by manual assignation of the start, peak, and end of each Ca^2+ spike. SALVO outputs were archived and interrogated using a custom-built SQL-based database system (DB Miner, CHG, NCS, SBJ).
Baseline assessments of Ca^2+ signals in fluo-4–loaded cells prior to the addition of drug (control) were established as described above.
After each addition and following a period of equilibration (approximately 90 s), fluo-4–dependent Ca^2+ signals were acquired for 30 s. Using this protocol, the same population of cells was imaged throughout the entire drug addition sequence.
In all experiments, operators were blinded to the identities of the drugs under test throughout all phases of postexperimental data analysis.
Supplementary Table 2. EC20 values for Ca2+ perturbation.
Drug concentrations (nM) that produced a 20% change from control values (no drug) were calculated for each SALVO parameter from regression analysis of […]
The effective therapeutic plasma concentration of free drug (ETPCunbound, nM) was calculated in Supplementary Table 1.
Calculate percentage effect size (E) for each SALVO parameter, normalized to Ew = E x λ control conditions, at each drug concentration Effect size (E,%) λ
Cumulative Ew for drug concentrations of 0.1, 1, 10, 100 and 1000 nM for The relationship between E and λ is given by […]

Cytiva hSCCMs [2] = assay: Whole-cell current-clamp recording of spontaneous action potentials (APD90); assay type: cell-based, human; conditions: drug at EC20 concentration, 3 min; Fridericia-corrected; blebbistatin-immobilized cells
Description: Cells in 35-mm glass-bottomed culture dishes containing a superfusion insert (AutoMate PCP-1; Digitimer Ltd., Welwyn Garden City, UK) were mounted on the stage of an inverted microscope (CKX-41; Olympus, Tokyo, Japan) and were superfused with normal Tyrode (NT) solution (containing [in mM] NaCl, KCl, MgCl2 [1], CaCl2 [2], HEPES [10], glucose; pH 7.4 with NaOH) or NT-containing drugs maintained at 37 °C using a heated jacket.
Cells were whole-cell clamped with 3- to 4-MΩ patches and an intrapipette solution (containing in [mM] KCl, MgCl2 [1.75], CaCl2 [5.37], EGTA [10], HEPES [10], and Na2ATP [4]; pH 7.2 with KOH) in current-clamp (IC) mode using a CV-7B headstage and MultiClamp 700B amplifier controlled by MultiClamp software (Molecular Devices, Sunnyvale, CA). Data were digitized and acquired using a Digidata 1322a card and pClamp software, respectively (Molecular Devices). Action potentials were sampled at a rate of 20 kHz and low pass (Bessel) filtered at 10 kHz.
Spontaneous cell contracture was terminated using blebbistatin (5 µM, 10 min), an agent that inhibits myofilament shortening and thereby negates patch-clamp recording instability but preserves normal Ca^2+ cycling.[20] […] Action potential (AP) recordings from blebbistatin-immobilized cells were taken under control (no-drug) conditions (1 min) and following the switch to drug-containing NT. APD90, corrected for AP cycle length using Fridericia’s method (APD90(corr) = APD90/cycle length^[…]), was calculated from five consecutive APs following a 3-min exposure of the cells to drug.
Figure 4. Investigating the effect of cardiovascular-active drugs on Cytiva APD90. (A) Cells were exposed to drugs at EC20 concentrations for 3 min (Suppl. Table S2). APD90 values were corrected for beat period using Fridericia’s algorithm. Data points represent individual paired experiments (n = 6). Representative control (gray) and drug-treated (black) action potential traces are shown. (B) APD90 plotted as the percentage change relative to the paired control value (no drug). *p < 0.05. **p < 0.01.

[3] = Effective therapeutic plasma concentration (ETPC, ETPCunbound); assay type: in vivo, human; conditions: free plasma concentration calculated from ETPC and free drug %, Supplementary Table 1
Text: There is also the issue regarding the relevance of drug potency determined in vitro to clinical dosing in humans. Guo and colleagues[25],[27] used an impedance-derived index of arrhythmic beating in hSCCMs to derive a predicted proarrhythmic score (PPS) that took into account the therapeutically relevant total concentration of drug in human plasma (defined as Ceff). More recently, Clements and Thomas[13] used a similar approach to generate a predictive risk score (PRS) based on their measurement of field potential duration (FPD) in Cytiva.
Supplementary Table 1. Calculating the free plasma concentration of […]
described by Redfern et al. (Redfern et al. (2003) Cardiovasc. Res. 58:32-45) was used to calculate the levels of free drug (ETPCunbound). ETPC for nadolol and valdecoxib were from Krukemyer et al. (Pharm. Res. (1990) 9:953-956) and Yuan et al. (Drug Metab. Disp. (2002) 30:1013-1021), respectively. The values for drug-protein binding were obtained from DrugBank (www.drugbank.ca).

[4] = maximal effective therapeutic plasma concentration, cited from earlier work
[5] = design: method as in DrugBank (www.drugbank.ca); conditions: from drug-protein binding values; ref DrugBank (www.drugbank.ca); cited from earlier work
[6] = cited from earlier work; for TdP risk category: categories assigned by Redfern and colleagues
[7] = 20% change from control in amplitude heterogeneity index, regression of Figure 3 data
[8] = 20% change from control in intercellular synchronization, regression of Figure 3 data
[9] = 20% change from control in intertransient noise, regression of Figure 3 data
[10] = 20% change from control in temporal heterogeneity index, regression of Figure 3 data
[11] = drug concentration producing a 20% change from control (no drug) in Ca2+ oscillation rate, regression of Figure 3 data
[12] = five-parameter SALVO output integrated over 0.1-1000 nM, normalized to control
[13] = spontaneously oscillating Cytiva, concentrations up to 30 µM
[14] = spontaneously oscillating Cytiva

| SMILES | EC20 AHI (Cytiva hSCCMs [1]; [7]) [µM] | EC20 Synch (Cytiva hSCCMs [1]; [8]) [µM] | EC20 ITN (Cytiva hSCCMs [1]; [9]) [µM] | EC20 THI (Cytiva hSCCMs [1]; [10]) [µM] | EC20 Rate (Cytiva hSCCMs [1]; [11]) [µM] | SALVO toxicity score, rank order of the extent of Ca2+ perturbation (Cytiva hSCCMs [1]; [12]) | Effect on Ca2+ handling (SALVO parameters) (Cytiva hSCCMs [1]; [13]) | Effect on APD90 (action potential duration) (Cytiva hSCCMs [2]) | ETPCunbound [3] [nM] | TdP risk category [6] | other results |
| --- | --- | --- | --- | --- | --- | --- | --- | --- | --- | --- | --- |
| O=C(NCC1CCCCN1)c1cc(OCC(F)(F)F)ccc1OCC(F)(F)F (centres unmarked) [Flecainide, flecainide] | 0.26 | > 30 | 2.11 | 0.285 | 0.215 | astemizole > thioridazine > cisapride > flecainide > valdecoxib > sotalol > nadolol | large effect sizes in multiple parameters | no effect | 1159 | – | Predicted proarrhythmic score (PPS) (Cytiva hSCCMs [1]; PPS = ETPCunbound/EC20): elevated PPS |
| CC(C)(C)NCC(O)COc1cccc2c1CC(O)C(O)C2 (centres unmarked) [Nadolol, nadolol] | > 30 | > 30 | > 30 | > 30 | > 30 | astemizole > thioridazine > cisapride > flecainide > valdecoxib > sotalol > nadolol | no measurable effect | – | 271 | category 5 | ETPC ([4]; ref Krukemyer et al. (Pharm. Res. (1990) 9:953-956)): 387 nM; Free drug [5]: 70% |
| COc1ccccc1OCC(O)CN1CCN(CC(=O)Nc2c(C)cccc2C)CC1 (centres unmarked) [Ranolazine, ranolazine] | – | – | – | – | – | – | unchanged Ca^2+ cycling | – | – | – | Effect on intercellular synchronization (Cytiva hSCCMs [1]; [14]): reduced intercellular synchronization |
| CC(C)NCC(O)c1ccc(NS(C)(=O)=O)cc1 (centres unmarked) [Sotalol, sotalol] | 0.21 | > 30 | > 30 | > 30 | > 30 | astemizole > thioridazine > cisapride > flecainide > valdecoxib > sotalol > nadolol | – | – | 14733 | – | Predicted proarrhythmic score (PPS) (Cytiva hSCCMs [1]; PPS = ETPCunbound/EC20): ~ 15; Concentration causing an isolated change in AHI (Cytiva hSCCMs [1]; [14]): > 1 µM; Effect on intercellular synchronization (Cytiva hSCCMs [1]; [14]): did not reduce the extent of intercellular synchronization; ETPCunbound ([3]; listed as sotalol): 14,733 nM; ETPC ([4]; ref Redfern et al. (2003) Cardiovasc. Res. 58:32-45): 14733 nM; Therapeutic plasma concentration with QT-prolonging effects ([6]; reported, no reference given): exceeding 10 µM |
| CSc1ccc2c(c1)N(CCC1CCCCN1C)c1ccccc1S2 (centres unmarked) [Thioridazine, thioridazine] | 0.205 | 0.12 | 0.11 | 0.53 | 1.12 | astemizole > thioridazine > cisapride > flecainide > valdecoxib > sotalol > nadolol | large effect sizes in multiple parameters | increased APD90 | 89 | – | PPS rank order (Cytiva hSCCMs [1]; PPS = ETPCunbound/EC20): thioridazine > cisapride > valdecoxib |
| Cc1onc(-c2ccccc2)c1-c1ccc(S(N)(=O)=O)cc1 [Valdecoxib, valdecoxib] | – | – | – | – | – | – | – | no effect | 45 | – | EC20 AHI (Cytiva hSCCMs [1]): 0.685 µM; EC20 ITN (Cytiva hSCCMs [1]): > 30 µM; EC20 Rate (Cytiva hSCCMs [1]): 9.87 µM; EC20 Synch (Cytiva hSCCMs [1]): > 30 µM; EC20 THI (Cytiva hSCCMs [1]): 12.8 µM; Effect on Ca2+ handling (SALVO parameters) (Cytiva hSCCMs [1]): large effect sizes in multiple parameters; PPS rank order (Cytiva hSCCMs [1]): thioridazine > cisapride > valdecoxib; SALVO toxicity score, rank order of the extent of Ca2+ perturbation (Cytiva hSCCMs [1]): astemizole > thioridazine > cisapride > flecainide > valdecoxib > sotalol > nadolol; ETPC ([4]; ref Yuan et al. (Drug Metab. Disp. (2002) 30:1013-1021)): 2257 nM; Free drug [5]: 2% |
| COc1ccc(CCN(C)CCCC(C#N)(c2ccc(OC)c(OC)c2)C(C)C)cc1OC (centres unmarked) [Verapamil, verapamil] | – | – | – | – | – | – | no measurable effect | – | – | – | Concentration reducing the rate of Ca2+ oscillation (Cytiva hSCCMs [1]; [14]): > 10 µM |
| CCCCc1oc2ccccc2c1C(=O)c1cc(I)c(OCCN(CC)CC)c(I)c1 [amiodarone] | – | – | – | – | – | – | – | – | – | category 1 | – |
| CC(CC(c1ccccc1)c1ccccc1)NC(C)(C)C (centres unmarked) [terodiline] | – | – | – | – | – | – | – | – | – | category 2 | – |
